The record followed here is ChEMBL document CHEMBL5352429, “Designed symmetrical β-hairpin peptides for treating multidrug-resistant salmonella typhimurium infections” (Eur J Med Chem, 2022).

One data set deals with Erythrocyte. As to the kind of experiment: Hemolytic activity in human Red blood cells assessed as hemolysis incubated for 1 hrs by absorbance based microplate reader analysis. It counts as toxicity, cell-based.
The test system of a further data set is RAW264.7. The experiment in a line: Cytotoxicity against mouse RAW264.7 cells infected with Salmonella typhimurium DT104 assessed as cell viability at 1 times of MIC measured at 180 min by MTT assay. It counts as toxicity, cell-based. As to conditions: raw264.7, 3 h. In general terms: Formazan colour is commonly taken as a measure of viable cells.
Data set [1] deals with Staphylococcus aureus. As to the kind of experiment: Antibacterial activity against Staphylococcus aureus ATCC 29213 incubated overnight by standard microtiter dilution method. It is filed as functional.
Data set [2] deals with Staphylococcus aureus. As to the kind of experiment: Antibacterial activity against methicillin-resistant Staphylococcus aureus ATCC 43300 incubated overnight by standard microtiter dilution method. It counts as functional.
Data set [3] concerns Staphylococcus epidermidis. As to the kind of experiment: Antibacterial activity against methicillin-resistant Staphylococcus epidermidis ATCC 12228 incubated overnight by standard microtiter dilution method. It is filed as functional.
A further data set concerns Enterococcus faecalis. As to the kind of experiment: Antibacterial activity against Enterococcus faecalis ATCC 29212 incubated overnight by standard microtiter dilution method. It counts as functional.
In a further data set the test system is Escherichia coli. As to the kind of experiment: Antibacterial activity against Escherichia coli O157:H7 CICC 21530 incubated overnight by standard microtiter dilution method. It counts as functional.
The subject of a further data set is Salmonella paratyphi. As to the kind of experiment: Antibacterial activity against Salmonella paratyphi A CICC 21501 incubated overnight by standard microtiter dilution method. It is filed as functional. Particulars: Salmonella enterica subsp. enterica serovar Paratyphi A.
For data set [4], the system named is Salmonella enterica subsp. enterica serovar Paratyphi B. The experiment in a line: Antibacterial activity against Salmonella paratyphi B CICC 21495 incubated overnight by standard microtiter dilution method. It counts as functional.
Data set [5] concerns Salmonella enterica subsp. enterica serovar Paratyphi C. As to the kind of experiment: Antibacterial activity against Salmonella paratyphi C CICC 21512 incubated overnight by standard microtiter dilution method. It counts as functional.
Data set [6] concerns Salmonella enterica subsp. enterica serovar Choleraesuis. The experiment in a line: Antibacterial activity against Salmonella enterica subsp. enterica serovar Choleraesuis ATCC 13312 incubated overnight by standard microtiter dilution method. It counts as functional.
The test system is the same in data set [7]. The experiment in a line: Antibacterial activity against Salmonella enterica subsp. enterica serovar Choleraesuis CICC 21493 incubated overnight by standard microtiter dilution method. It is filed as functional.
The test system of the next data set is Salmonella enteritidis. The experiment in a line: Antibacterial activity against Salmonella enteritidis CICC 21527 incubated overnight by standard microtiter dilution method. It counts as functional. Particulars: Salmonella enterica subsp. enterica serovar Enteritidis.
The test system of data set [8] is Salmonella enterica subsp. enterica serovar Wandsworth. As to the kind of experiment: Antibacterial activity against Salmonella wandsworth CICC 21504 incubated overnight by standard microtiter dilution method. It counts as functional.
The subject of data set [9] is Salmonella typhimurium. The experiment in a line: Antibacterial activity against Salmonella typhimurium CICC 21483 incubated overnight by standard microtiter dilution method. It counts as functional. Particulars: Salmonella enterica subsp. enterica serovar Typhimurium.
Data set [10] deals with Salmonella typhimurium. As to the kind of experiment: Antibacterial activity against Salmonella typhimurium CICC 21913 incubated overnight by standard microtiter dilution method. It counts as functional. Particulars: Salmonella enterica subsp. enterica serovar Typhimurium.
Data set [11] has as its system Salmonella enterica subsp. enterica serovar Blockley. The experiment in a line: Antibacterial activity against Salmonella blockley CICC 21489 incubated overnight by standard microtiter dilution method. It is filed as functional.
The subject of data set [12] is Salmonella enterica subsp. enterica serovar Dublin. As to the kind of experiment: Antibacterial activity against Salmonella dublin CICC 21497 incubated overnight by standard microtiter dilution method. It is filed as functional.
Data set [13] deals with Salmonella typhimurium. The experiment in a line: Antibacterial activity against Salmonella typhimurium DT104 ATCC 700408 incubated overnight by standard microtiter dilution method. Particulars: Salmonella enterica subsp. enterica serovar Typhimurium. It is filed as functional.
A further data set deals with Candida albicans. As to the kind of experiment: Antifungal activity against Candida albicans ATCC 10231 incubated overnight by standard microtiter dilution method. It is filed as functional.
A further data set deals with Lipopolysaccharide (LPS). As to the kind of experiment: Displacement of BODIPY-TR-cadaverine from Salmonella typhimurium LPS assessed as increase in fluorescence intensity by fluorescence spectrophotometric analysis. Particulars: Salmonella enterica subsp. enterica serovar Typhimurium; dose 0.25-8 µg/ml.
The test system of data set [14] is Salmonella typhimurium. The experiment in a line: Antibacterial activity against multi-drug resistant Salmonella typhimurium DT104 infected in ICR mouse model assessed as fecal shedding of bacteria at 2 mg/kg, ip administered for 3 days and measured on day 7. It counts as functional, organism-based. Particulars: Salmonella enterica subsp. enterica serovar Typhimurium, time 7.0 day.

Data set [15] deals with Salmonella typhimurium. The experiment in a line: Antibacterial activity against multi-drug resistant Salmonella typhimurium DT104 infected in ICR mouse model assessed as reversal of mouse vigour loss at 2 mg/kg, ip administered for 3 days and measured on day 7. It is filed as functional, organism-based. Particulars: Salmonella enterica subsp. enterica serovar Typhimurium, time 7.0 day.

Data set [16] relates to Salmonella typhimurium. The experiment in a line: Antibacterial activity against multi-drug resistant Salmonella typhimurium DT104 infected in ICR mouse model assessed as reversal of mouse vitality loss at 2 mg/kg, ip administered for 3 days and measured on day 7. It is filed as functional, organism-based. Particulars: Salmonella enterica subsp. enterica serovar Typhimurium, time 7.0 day.

Data set [17] has as its system Salmonella typhimurium. As to the kind of experiment: Antibacterial activity against multi-drug resistant Salmonella typhimurium DT104 infected in ICR mouse model assessed as reversal of body weight loss at 2 mg/kg, ip administered for 3 days and measured on day 7. It counts as functional, organism-based. As to conditions: Salmonella enterica subsp. enterica serovar Typhimurium, time 7.0 day.

Active and inactive are the calls of the source. The rule behind the calls is not given here.

For the sequence POLYMYXIN B [listing 1 of 2 here], the MHC in the data set on Erythrocyte is above 128 µg/mL. The Activity with RAW264.7 is given as above 90%.
Regarding POLYMYXIN B [listing 2 of 2 here], the MIC (commonly the least concentration at which growth counts as inhibited) in the data set with Staphylococcus aureus [1] was 64 µg/mL; with Staphylococcus aureus [2], above 128 µg/mL; in data set [3], 4 µg/mL; with Enterococcus faecalis it was 128 µg/mL; against Escherichia coli, 32 µg/mL; against Salmonella paratyphi, 4 µg/mL. The MIC in data set [4] turned out to be 2 µg/mL; in data set [5] it was 2 µg/mL; in [6], 1 µg/mL; in data set [7], 4 µg/mL; against Salmonella enteritidis, 2 µg/mL; in [8], 1 µg/mL. The MIC in the data set on Salmonella typhimurium [9] was determined as 2 µg/mL; against Salmonella typhimurium [10], 2 µg/mL; in data set [11], 1 µg/mL; in data set [12] it was 2 µg/mL; in the data set on Salmonella typhimurium [13], 4 µg/mL; in the data set with Candida albicans, 64 µg/mL. Moreover, in the data set on Lipopolysaccharide (LPS), the Activity result was “Dose-Dependent Effect”. Besides, the outcome with Salmonella typhimurium [14], in the data set with Salmonella typhimurium [15], with Salmonella typhimurium [16] and with Salmonella typhimurium [17] was inactive.
